Literature values as cited in patent US20190054051A1, “DOPA Formulations for Treatments of Parkinson's Disease” (The Board of Trustees of the Leland Stanford Junior …, priority 2017, published 2019).

Experiments:
animal models of PD = conditions: previously reported; cited from earlier work
[1] = cited from earlier work

NC(N)=Nc1nc(CSCCC(N)=NS(N)(=O)=O)cs1 [famotidine]
L-DOPA induced dyskinesia (dyskinetic behavior following DOPA treatment) (animal models of PD): decreased the dyskinetic behavior

C[C@@](Cc1ccc(O)c(O)c1)(NN)C(=O)O [Carbidopa, N-amino-α-methyl-3-hydroxy-L-tyrosine monohydrate]
solubility in water [1]: slightly soluble in water
